Data taken from patent US9663514B2 (Takeda Pharmaceutical Company Limited, priority 2011, dated 2017).

What follows are compounds tested against T1, SYK (Homo sapiens, UniProt P43405) (assay: SYK inhibition: in vitro assay of SYK-mediated phosphorylation of FAM-labeled substrate (Caliper LC-3000)). Settings: SYK kinase domain (residues 356-635); 2.4 nM SYK and 45 μM ATP, 3 μM 5FAM-KKKKEEIYFFFG-NH2, RT 60 min, pH 7.3; pIC50 = −log(IC50), IC50 molar.
T1 construct: The SYK kinase domain (residues 356-635) is amplified via PCR; made in house; host or cells: Sf9 insect cells (baculovirus, pFastBac1)
Format: biochemical
Method: The ability of compounds to inhibit SYK activity may be assessed using a variety of methods, including in vitro and in vivo assays. The following in vitro assay measures a test compound's ability to inhibit SYK-mediated phosphorylation of a FAM-labeled SYK-specific substrate (5FAM-KKKKEEIYFFFG-NH2).
SYK protein is prepared from cDNA encoding human spleen tyrosine kinase and is expressed in insect cells using a baculovirus expression vector. The cDNA (IMAGE: 3542895) is purchased from Open Biosystems. The SYK kinase domain (residues 356-635) is amplified via PCR and cloned into plasmid pFastBacl (Invitrogen) at BamHI/XbaI sites. Recombinant plasmid encoding Met-Ala-Lys-SYK(356-635)-HHHHHH is sequenced and transformed into E. coli DH10Bac strain. The recombinant bacmid DNA is isolated and transfected into Sf9 insect cells. Recombinant virus is harvested 72 h after transfection. High titer viral stock is prepared by infecting Sf9 cells at a multiplicity of infection (MOI) of approximately 0.01. A suspension of Sf9 cells (10 L) is infected with recombinant virus (MOI=5) and is incubated in a Wave Bioreactor (GE-Healthcare) for 48 h. The cells are harvested and stored at −80° C.
To purify the expressed protein, the frozen Sf9 cells (10 L) are broken into small (<1 cm) particles and suspended in a lysis buffer (300 mL) containing 20 mM Tris (pH 7.6), 0.25 mM TCEP, 100 mM NaCl, 5% glycerol and a protease inhibitor. The suspension is stirred at RT until completely thawed, lysed an additional 2-4 min on a rotary blade homogenizer, and then centrifuged at 4200 g for 1 h. Following centrifugation, the supernatant is poured through cheese cloth and combined with a nickel chelating resin (Probond Resin™, Invitrogen) which is pre-equilibrated in a wash buffer containing 10 mM Tris (pH 7.6), 0.25 mM TCEP, 300 mM NaCl, 5% glycerol, and 20 mM imidazole. The mixture is agitated for 3 h in a cold room and then centrifuged at 900 g for 10 min. The resin is dispersed in wash buffer (50 mL), centrifuged for 10 min at 900 g, re-dispersed in a small amount of wash buffer (5 mL), and then pour into a disposable Poly-Prep chromatography column, through which wash buffer is passed by gravity until no protein is observed in coomassie buffer (about 120 mL of wash buffer). An elution buffer (30 mL) containing 10 mM HEPES (pH 7.4), 150 mM NaCl, 10% glycerol, 5 mM DTT, and 400 mM imidazole is used to elute the SYK protein from the resin. The eluate is concentrated (5 mL) and further purified on a Superdex 200 column (1.2 mL/min for 160 min, 10 mM HEPES (pH 7.4), 10 mM NaCl, 10 mM MgCl, 0.1 mM EDTA, and 0.25 mM TCEP). The chromatographed fractions are run on SDS-PAGE and the requisite fractions are pooled and concentrated. Final delivery buffer is 10 mM HEPES (pH 7.4), 10 mM Methione, 150 mM NaCl, 10% glycerol, 5 mM DTT.
SYK inhibition is determined using a black 384 well plate format in buffer containing 50 mM HEPES, 10 mM NaCl, 10 mM MgCl2, 0.2 mM EDTA, 0.01% EDA (Brij®35), 1 mM DTT, and 0.1 mg/ml BSA at pH 7.3. Each test compound is prepared in DMSO using 2-fold serial dilutions for 11 data points, which are added to the buffer so that each dilution contains 3% DMSO. To each well is added 2 μL of 3 μM SFAM-KKKKEEIYFFFG-NH2 (in buffer), 2 μL of diluted test compound (3% DMSO in buffer), and 2 μL of 2.4 nM SYK and 45 μM ATP (in buffer). The reaction mixture is incubated at RT for 60 min, and quenched by adding 50 mM Hepes, 30 mM EDTA, 0.1% Triton X-100 (pH 7.3). To quantify the fluorescent-labeled substrate and product following reaction, the test plate is loaded on a Caliper LC-3000, which measures percent of conversion by microfluidic-based separation. Corresponding IC50 values are calculated by non-linear curve fitting of the compound concentrations and percent of inhibition to the standard IC50 equation and reported as pIC50, i.e., −log(IC50), where IC50 is molar concentration.

SMILES	IC50
N[C@H]1CCCC[C@H]1Nc1nc(-c2cc3ccc(F)cc3s2)c2c(c1F)CNC2=O [Example 20]	0.251 nM
N[C@H]1CCCC[C@H]1Nc1nc(-c2cc3cnccc3s2)c2c(c1F)CNC2=O [Example 18, 6-((1R,2S)-2-Aminocyclohexylamino)-7-fluoro-4-(thieno[3,2-c]pyridin-2-yl)-1H-pyrrolo[3,4-c]pyridin-3(2H)-one]	0.316 nM
Cn1ncc2sc(-c3nc(N[C@@H]4CCCC[C@@H]4N)c(F)c4c3C(=O)NC4)cc21 [Example 29, 6-((1R,2S)-2-Aminocyclohexylamino)-7-fluoro-4-(1-methyl-1H-thieno[3,2-c]pyrazol-5-yl)-1H-pyrrolo[3,4-c]pyridin-3(2H)-one]	0.1 nM
Cc1ccn2ncc(-c3nc(N[C@@H]4CCCC[C@@H]4N)c(F)c4c3C(=O)NC4)c2c1 [Example 59, 6-(((1R,2S)-2-Aminocyclohexyl)amino)-7-fluoro-4-(5-methylpyrazolo[1,5-a]pyridin-3-yl)-1H-pyrrolo[3,4-c]pyridin-3(2H)-one]	2.51 nM
N[C@H]1CCCC[C@H]1Nc1nc(/C=C/c2ccc(Cl)cc2)c2c(c1F)CNC2=O [Example 50, 6-((1R,2S)-2-Aminocyclohexylamino)-4-(4-chlorostyryl)-7-fluoro-1H-pyrrolo[3,4-c]pyridin-3(2H)-one]	2 nM
N[C@H]1COCC[C@H]1Nc1nc(/C=C/c2ccc(F)cc2)c2c(c1F)CNC2=O [Example 46, 6-((3R,4R)-3-Aminotetrahydro-2H-pyran-4-ylamino)-7-fluoro-4-(4-fluorostyryl)-1H-pyrrolo[3,4-c]pyridin-3(2H)-one]	5.01 nM
Cn1ncc2sc(-c3nc(N[C@@H]4CCOC[C@@H]4N)c(F)c4c3C(=O)NC4)cc21 [Example 30, 6-((3R,4R)-3-Aminotetrahydro-2H-pyran-4-ylamino)-7-fluoro-4-(1-methyl-1H-thieno[3,2-c]pyrazol-5-yl)-1H-pyrrolo[3,4-c]pyridin-3(2H)-one]	0.1 nM
N[C@H]1CCCC[C@H]1Nc1nc(C#Cc2ccccc2)c2c(c1F)CNC2=O [Example 43, 6-((1R,2S)-2-Aminocyclohexylamino)-7-fluoro-4-(phenylethynyl)-1H-pyrrolo[3,4-c]pyridin-3(2H)-one]	63.1 nM
CCc1cc(-c2nc(N[C@@H]3CCCC[C@@H]3N)c(F)c3c2C(=O)NC3)sn1 [Example 3, 6-((1R,2S)-2-Aminocyclohexylamino)-4-(3-ethylisothiazol-5-yl)-7-fluoro-1H-pyrrolo[3,4-c]pyridin-3 (2H)-one]	1.26 nM
N#Cc1ccc2sc(-c3nc(N[C@@H]4CCCC[C@@H]4N)c(F)c4c3C(=O)NC4)cc2c1 [Example 22, 2-(6-((1R,2S)-2-Aminocyclohexylamino)-7-fluoro-3-oxo-2,3-dihydro-1H-pyrrolo[3,4-c]pyridin-4-yl)benzo[b]thiophene-5-carbonitrile]	0.126 nM
Cc1nn(C)c2sc(-c3nc(N[C@@H]4CCCC[C@@H]4N)c(F)c4c3C(=O)NC4)cc12 [Example 36, 6-((1R,2S)-2-Aminocyclohexylamino)-4-(1,3-dimethyl-1H-thieno[2,3-c]pyrazol-5-yl)-7-fluoro-1H-pyrrolo[3,4-c]pyridin-3(2H)-one]	0.126 nM
